Results taken from BindingDB's records for doi:10.7270/Q2TQ5ZZB (Burnham Center For Chemical Genomics, 2010).
Where a name gives a salt, the structure may show the parent alone.

Target: G-protein coupled receptor 35 (Homo sapiens, UniProt Q9HC97)
Assay: GPR35 antagonists blocking zaprinast-driven arrestin recruitment, primary screen, imaging, U2OS, beta-arrestin-GFP, zaprinast agonist (AID 2058)

Sequence of G-protein coupled receptor 35 (Q9HC97 whole entry): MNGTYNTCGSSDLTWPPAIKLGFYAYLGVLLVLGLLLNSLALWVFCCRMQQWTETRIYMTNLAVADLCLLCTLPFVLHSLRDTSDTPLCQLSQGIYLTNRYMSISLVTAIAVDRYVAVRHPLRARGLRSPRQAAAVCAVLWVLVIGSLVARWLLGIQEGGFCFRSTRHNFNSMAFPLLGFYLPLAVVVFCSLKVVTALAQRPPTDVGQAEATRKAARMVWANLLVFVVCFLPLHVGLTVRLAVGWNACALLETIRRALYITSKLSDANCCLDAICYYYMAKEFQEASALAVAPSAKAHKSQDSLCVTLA

**Q.** With `CC1(C)Cc2c(ccc3ccccc23)C(CC(=O)N2CCCCC2)=N1` [(2Z)-2-(2,2-dimethyl-1,3-dihydrobenzo[f]isoquinolin-4-ylidene)-1-(1-piperidinyl)ethanone;hydrochloride] as the compound, how does the IC50 read?
**A.** Its IC50 is 11 µM.

**Q.** Which IC50 does the source give for `Oc1ccc(CN=Nc2nc(-c3ccccc3F)nc3ccccc23)c(O)c1` [MLS000778210] here?
**A.** Its IC50 is 3.08 µM.

**Q.** How did the IC50 turn out when `CN1CCC2=C(C#N)C(=N)C(C#N)(C#N)C(c3cccc(Cl)c3Cl)C2C1` (stereo not given) [6-azanyl-8-[2,3-bis(chloranyl)phenyl]-2-methyl-1,3,8,8a-tetrahydroisoquinoline-5,7,7-tricarbonitrile] was run?
**A.** Its IC50 is 12 µM.

**Q.** For `COc1cccc(C2C3CN(C)CCC3=C(C#N)C(=N)C2(C#N)C#N)c1OC` (stereo not given) [6-Amino-8-(2,3-dimethoxy-phenyl)-2-methyl-2,3,8,8a-tetrahydro-1H-isoquinoline-5,7,7-tricarbonitrile], which IC50 is on record?
**A.** Its IC50 is 2.74 µM.

**Q.** With `CN1CCC2=C(C#N)C(=N)C(C#N)(C#N)C(c3ccsc3)C2C1` (stereo not given) [6-azanyl-2-methyl-8-thiophen-3-yl-1,3,8,8a-tetrahydroisoquinoline-5,7,7-tricarbonitrile] as the compound, how does the IC50 read?
**A.** The IC50 was 0.991 µM.
